Results: patent US20220289727A1, “ENZYME INHIBITORS” (KALVISTA PHARMACEUTICALS LIMITED, priority 2019, published 2022)

These compounds were tested against T1, Human Factor XIIa (Homo sapiens, UniProt P00748) (assay: Determination of FXIIa inhibitory activity in vitro (fluorogenic substrate H-DPro-Phe-Arg-AFC)). Details: 25° C., residual enzyme activity (initial rate).
T1 construct: Human Factor XIIa (Enzyme Research Laboratories) was incubated; purchased Enzyme Research Laboratories
T1 sequence (P00748 373-615 limits assumed): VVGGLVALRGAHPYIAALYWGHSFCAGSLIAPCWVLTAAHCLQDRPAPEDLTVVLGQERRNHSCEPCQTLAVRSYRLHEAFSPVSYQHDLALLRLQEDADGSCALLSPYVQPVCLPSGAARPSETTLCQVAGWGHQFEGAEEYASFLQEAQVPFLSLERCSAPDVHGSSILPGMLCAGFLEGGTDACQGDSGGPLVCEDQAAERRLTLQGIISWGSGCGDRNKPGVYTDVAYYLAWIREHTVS
T1 sequence (P00748 20-372 partner limits assumed): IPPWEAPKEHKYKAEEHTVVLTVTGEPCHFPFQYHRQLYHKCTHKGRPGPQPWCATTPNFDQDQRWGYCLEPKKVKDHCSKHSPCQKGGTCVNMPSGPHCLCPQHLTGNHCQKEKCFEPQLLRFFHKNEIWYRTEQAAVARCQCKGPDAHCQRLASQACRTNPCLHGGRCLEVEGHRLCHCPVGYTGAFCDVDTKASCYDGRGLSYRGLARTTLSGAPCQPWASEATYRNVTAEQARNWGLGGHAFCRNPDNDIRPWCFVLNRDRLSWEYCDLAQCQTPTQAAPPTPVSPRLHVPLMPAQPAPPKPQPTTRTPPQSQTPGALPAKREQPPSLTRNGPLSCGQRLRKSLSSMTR
Type: biochemical

SMILES | IC50 [µM]
Nc1nccc2cc(CNC(=O)c3cc(Cl)c(COc4ccc(N5CCNCC5)cc4)s3)ccc12 [Example 7.03, N-((1-Aminoisoquinolin-6-yl)methyl)-4-chloro-5-((4-(piperazin-1-yl)phenoxy)methyl)thiophene-2-carboxamide] | 1 to 3
CC(C)NC(=O)N(C)c1ccc(OCc2sc(C(=O)NCc3ccc4c(N)nccc4c3)cc2Cl)cc1 [Example 7.04] | 10 to 40
Nc1nccc2cc(CNC(=O)c3cc(Cl)c(COc4cccc(N5CCNCC5)c4)s3)ccc12 [Example 7.05] | 1 to 3
Nc1nccc2cc(CNC(=O)c3cc(Cl)c(COCCN4CCOCC4)s3)ccc12 [Example 7.06] | 3 to 10
Nc1nccc2cc(CNC(=O)c3cc(Cl)c(COCCN4CCCCC4)s3)ccc12 [Example 7.07] | 3 to 10
CN1CCC(COCc2sc(C(=O)NCc3ccc4c(N)nccc4c3)cc2Cl)CC1 [Example 7.08] | 1 to 3
Nc1nccc2cc(CNC(=O)c3cc(Cl)c(COCCN4CCS(=O)(=O)CC4)s3)ccc12 [Example 7.09] | 3 to 10
Nc1nccc2cc(CNC(=O)c3cc(Cl)c(COCc4ccccn4)s3)ccc12 [Example 7.10] | 10 to 40
CS(=O)(=O)c1cccc(COCc2sc(C(=O)NCc3ccc4c(N)nccc4c3)cc2Cl)c1 [Example 7.11] | 10 to 40
Nc1nccc2cc(CNC(=O)c3cc(Cl)c(COCCC4CCOCC4)s3)ccc12 [Example 7.12] | 10 to 40
Nc1nccc2cc(CNC(=O)c3cc(Cl)c(COCC4CCOCC4)s3)ccc12 [Example 7.13] | 3 to 10
Nc1nccc2cc(CNC(=O)c3cc(Cl)c(COCCN4CCCC4)s3)ccc12 [Example 7.14] | 3 to 10
CN(C)CCOCc1sc(C(=O)NCc2ccc3c(N)nccc3c2)cc1Cl [Example 7.15] | 3 to 10
Nc1nccc2cc(CNC(=O)c3cc(Cl)c(COCCn4ccnc4)s3)ccc12 [Example 7.16] | 3 to 10
CN(CCOCc1sc(C(=O)NCc2ccc3c(N)nccc3c2)cc1Cl)Cc1ccccc1 [Example 7.17] | 10 to 40
Nc1nccc2cc(CNC(=O)c3cc(Cl)c(COCC4CCN(Cc5ccccc5)CC4)s3)ccc12 [Example 7.18] | 10 to 40
Nc1nccc2cc(CNC(=O)c3cc(Cl)c(COCc4cccnc4)s3)ccc12 [Example 7.19] | 3 to 10
Nc1nccc2cc(CNC(=O)c3cc(Cl)c(COCc4ccncc4)s3)ccc12 [Example 7.20] | 3 to 10
Nc1nccc2cc(CNC(=O)c3cc(Cl)c(COCc4cncnc4)s3)ccc12 [Example 7.21] | 3 to 10
CCN(CC)CCCOCc1sc(C(=O)NCc2ccc3c(N)nccc3c2)cc1Cl [Example 7.22] | 1 to 3
Nc1nccc2cc(CNC(=O)c3cc(Cl)c(COCCCN4CCCCC4)s3)ccc12 [Example 7.23] | 1 to 3
Nc1nccc2cc(CNC(=O)c3cc(Cl)c(COCCCc4ccncc4)s3)ccc12 [Example 7.24] | 10 to 40
Nc1nccc2cc(CNC(=O)c3cc(Cl)c(COCCCN4CCOCC4)s3)ccc12 [Example 7.25] | 3 to 10
CN(C)CCCCOCc1sc(C(=O)NCc2ccc3c(N)nccc3c2)cc1Cl [Example 7.26, N-((1-Aminoisoquinolin-6-yl)methyl)-4-chloro-5-((4-(dimethylamino)butoxy)methyl)thiophene-2-carboxamide] | 1 to 3
Cn1cc(CCCOCc2sc(C(=O)NCc3ccc4c(N)nccc4c3)cc2Cl)cn1 [Example 7.27] | 3 to 10
Nc1nccc2cc(CNC(=O)c3cc(Cl)c(COCCCn4cccn4)s3)ccc12 [Example 7.28] | 10 to 40
Nc1nccc2cc(CNC(=O)c3cc(Cl)c(COCCCc4ccccn4)s3)ccc12 [Example 7.29] | 10 to 40
CN(C)c1ccc(COCc2sc(C(=O)NCc3ccc4c(N)nccc4c3)cc2Cl)cc1 [Example 7.30] | 10 to 40
CN(C)CCCOCc1sc(C(=O)NCc2ccc3c(N)nccc3c2)cc1Cl [Example 7.31] | 1 to 3

Further lines, results first:

IC50 [µM] | SMILES
10 to 40 | Nc1nccc2cc(CNC(=O)c3cc(Cl)cs3)ccc12 [Example 25.01]
3 to 10 | Cc1sc(C(=O)NCc2ccc3c(N)nccc3c2)cc1Br [Example 25.02]
10 to 40 | Nc1nccc2cc(CNC(=O)c3ccc(Cl)s3)ccc12 [Example 25.03]
3 to 10 | Cc1sc(C(=O)NCc2ccc3c(N)nccc3c2)cc1Cl [Example 25.04]
10 to 40 | Nc1nccc2cc(CNC(=O)c3cc(Cl)c(Cc4ccccc4O)s3)ccc12 [Example 25.05]
10 to 40 | COc1ccc(O)c(Cc2sc(C(=O)NCc3ccc4c(N)nccc4c3)cc2Cl)c1 [Example 25.06]
1 to 3 | CN1CCC(CCc2sc(C(=O)NCc3ccc4c(N)nccc4c3)cc2Cl)CC1 [Example 25.11]
3 to 10 | CN1CCC(CCc2csc(C(=O)NCc3ccc4c(N)nccc4c3)c2)CC1 [Example 25.12]
3 to 10 | Nc1nccc2cc(CNC(=O)c3cc(Br)cs3)ccc12 [Example 25.13]
1 to 3 | Nc1nccc2cc(CNC(=O)c3nc(CCC4CCNCC4)cs3)ccc12 [Example 25.14]
< 1 | CN1CCC(CCc2csc(C(=O)NCc3ccc4c(N)nccc4c3)n2)CC1 [Example 25.15, N-((1-Aminoisoquinolin-6-yl)methyl)-4-(2-(1-methylpiperidin-4-yl)ethyl)thiazole-2-carboxamide]
10 to 40 | CN1CCC(Nc2csc(C(=O)NCc3ccc4c(N)nccc4c3)c2)CC1 [Example 25.16]
10 to 40 | CN1CCC(CNc2csc(C(=O)NCc3ccc4c(N)nccc4c3)c2)CC1 [Example 25.17]
10 to 40 | Cc1nc2[nH]ccc2c(C)c1CNC(=O)c1cc(Cl)c(C)s1 [Example 25.101, 4-Chloro-N-((4,6-dimethyl-1H-pyrrolo[2,3-b]pyridin-5-yl)methyl)-5-methylthiophene-2-carboxamide]
10 to 40 | Cc1sc(C(=O)NCc2cc3c(N)nccc3s2)cc1Cl [Example 25.103, N-((4-aminothieno[3,2-c]pyridin-2-yl)methyl)-4-chloro-5-methylthiophene-2-carboxamide]
10 to 40 | Cc1sc(C(=O)NCc2ccc3c(N)nccc3c2F)cc1Cl [Example 25.104, N-((1-Amino-5-fluoroisoquinolin-6-yl)methyl)-4-chloro-5-methylthiophene-2-carboxamide]
40 to 70 | Cc1cc(N)nc(C)c1CNC(=O)c1cc(Cl)c(C)s1 [Example 25.105, N-[(6-Amino-2,4-dimethylpyridin-3-yl)methyl]-4-chloro-5-methylthiophene-2-carboxamide]
10 to 40 | Nc1nccc2cc(CNC(=O)c3cc4cccc(Cl)c4s3)ccc12 [Example 25.204]
3 to 10 | Nc1nccc2cc(CNC(=O)c3cc4cc(F)ccc4s3)ccc12 [Example 25.205]
10 to 40 | Nc1nccc2cc(CNC(=O)c3cc4c(F)cccc4s3)ccc12 [Example 25.206]
3 to 10 | CN1CCC(Nc2cccc3sc(C(=O)NCc4ccc5c(N)nccc5c4)cc23)CC1 [Example 25.208]
3 to 10 | CN1CCC(CNc2cccc3sc(C(=O)NCc4ccc5c(N)nccc5c4)cc23)CC1 [Example 25.209]
3 to 10 | Cc1sc(C(=O)NCc2ccc3c(N)nccc3c2)c(NCC2CCN(C)CC2)c1C [Example 26.11]
3 to 10 | Cc1cc(CCC2CCN(C)CC2)c(C(=O)NCc2ccc3c(N)nccc3c2)s1 [Example 26.12]
3 to 10 | CN1CCC(CNc2ccsc2C(=O)NCc2ccc3c(N)nccc3c2)CC1 [Example 26.13]
